This passage reports Dmax and DC50 results from patent US12441706B2, “Protein degradation agent compound preparation method and application” (SHANGHAI JEMINCARE PHARMACEUTICALS CO., LTD., priority 2019, dated 2025).

This assay addresses T1, androgen receptor (Homo sapiens, UniProt P10275, T878A).
T1 construct: endogenous in cells; host or cells: LNCaP cells
T1 sequence (P10275 1-920 T878A): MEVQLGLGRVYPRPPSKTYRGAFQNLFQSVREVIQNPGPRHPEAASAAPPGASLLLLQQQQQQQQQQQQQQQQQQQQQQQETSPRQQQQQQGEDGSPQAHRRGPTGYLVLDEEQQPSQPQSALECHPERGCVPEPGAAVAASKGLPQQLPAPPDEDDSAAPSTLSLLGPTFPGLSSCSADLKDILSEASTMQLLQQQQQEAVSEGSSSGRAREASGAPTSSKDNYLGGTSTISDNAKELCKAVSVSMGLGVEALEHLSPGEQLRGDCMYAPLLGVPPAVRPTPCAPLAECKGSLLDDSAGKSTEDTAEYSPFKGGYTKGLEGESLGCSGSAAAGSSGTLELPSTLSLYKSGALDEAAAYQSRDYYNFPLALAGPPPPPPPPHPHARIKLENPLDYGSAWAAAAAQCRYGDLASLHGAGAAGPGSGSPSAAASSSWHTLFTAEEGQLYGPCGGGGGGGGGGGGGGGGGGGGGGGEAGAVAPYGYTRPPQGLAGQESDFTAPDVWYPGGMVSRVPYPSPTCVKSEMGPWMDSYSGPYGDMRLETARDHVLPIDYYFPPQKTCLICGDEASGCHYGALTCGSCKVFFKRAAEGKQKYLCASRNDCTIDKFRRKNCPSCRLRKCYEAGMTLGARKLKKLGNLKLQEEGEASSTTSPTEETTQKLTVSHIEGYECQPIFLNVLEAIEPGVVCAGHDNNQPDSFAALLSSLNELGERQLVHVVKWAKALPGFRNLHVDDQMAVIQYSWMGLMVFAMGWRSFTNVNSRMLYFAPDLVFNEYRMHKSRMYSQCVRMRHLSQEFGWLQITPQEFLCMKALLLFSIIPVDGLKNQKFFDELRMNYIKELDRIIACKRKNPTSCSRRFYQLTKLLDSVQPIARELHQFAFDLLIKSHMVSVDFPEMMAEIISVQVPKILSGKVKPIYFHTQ
The assay is described as follows: In-Cell-Western determination of androgen receptor degradation in LnCaP cells. Type of assay: cell-based. The following applies: for Dmax: LNCaP; for DC50: concentration for half of the maximal degradation of AR in LnCaP cells, 24 hours treatment. How it is done:
The determination evaluated the properties of the compounds in Lncap cells. Intracellular androgen receptor was determined by In-Cell-Western according to the determination steps described below.
In poly-D-Lysin pretreated 96-well cell culture plate (Corning 3599), LNcap cells were divided into 100 μL/well volume, and inoculated with 30,000 cells/well in LNcap cell assay medium [DMEM containing phenol red (Gibco catalog number: 11995065); fetal bovine serum FBS (Gibco catalog number: 10099141C)]. Cells were cultured for at least two days.
1. First treated cells with compound. Compounds were gradient diluted with DMSO and cell culture medium, so that DMSO contained in cell culture plates was diluted to 0.5% —polypropylene plates were used according to the following protocol: (1)(i) 200× stock plate in DMSO was prepared; (ii) 10 mM stock solution was diluted 1:4 with DMSO (10 μL stock solution+40 μL DMSO)=2000 μM, then entered into row 2; (iii) 1:4 (10 μL protac+40 μL DMSO) gradient dilution was performed from row 2 to row 9, and row 1 was reserved for […] reference compound and row 10 for DMSO. (iv) A total of 8 concentrations (final concentrations on the 200× plate were 2000 μM, 400 μM and 80 μM, etc.). (2) (i) 3× stock solution was prepared in the medium. (ii) 3 μL of 200× stock solution was transferred to 197 µL of culture medium (using 12-channel pipette, from line 1 to line 10), i.e. 3× stock solution plate. (iii) The stock solution plate was mixed evenly. (3) (i) The culture medium of […] cells was replaced with fresh culture medium, 100 μL volume culture medium. (ii) The well-mixed 3× stock solution was transferred to the cell culture plate (using a 12-channel pipette, and 50 μL of stock solution was transferred from line 1 to line 10). (iii) Cells were cultured for 24 hours.
2. The expression level of intracellular androgen receptor after compound treatment was […] and determined according to the following method.
(1)(i) Equal volume of 8% paraformaldehyde was added to the cell culture plate for cell fixation. The fixing solution in the cell plate was discarded and washed three times with PBS. (ii) Triton solution (1:1000 dilution of the stock solution) was prepared. The solution in the cell plate was discarded, and 200 μL of Triton diluent was added into each well. (iii) 2×blocking solution (1:4 dilution of 10×blocking stock solution) was prepared. The solution in the cell plate was discarded, and 100 μL of 2×blocking solution was added into each well. (iv) Primary antibody solution (Androgen receptor Rabbbit mAb, Cell Signaling Technology catalog number: 5153; 1:1000 dilution) was prepared. The solution in the cell plate was discarded, 100 μL volume of primary antibody diluent was added to each well, and incubated at 4° C. overnight. (v) The primary antibody solution was discarded and the cell plate was washed with 1×Wash buffer. (vi) Secondary antibody solution (GOAT Antirabbit IgG (H+L), HRP, Thermo catalog number: 31460; 1:5000 dilution) was prepared, and 100 μL volume of secondary antibody dilution was added to each well for incubation. (vii) The secondary antibody solution in the cell plate was discarded and the cell plate was washed with 1×Wash buffer. (viii) TMB chromogenic solution (BD catalog number: 550534) was prepared, and 100 μL chromogenic solution was added into each well. (ix) 50 μL volume of stop solution (BD catalog number: 550534) was added to each well. (x) The absorption values at OD 450 nm and 570 nm were read though EnVision. (2) (i) Normalized analysis was performed on the number of cells in each well. The solution in the cell plate was discarded, and washed with wash buffer for three times. (ii) Janus dilution (1:3 dilution) was prepared. (iii) 50 μL volume diluent was added to each well for incubation. (iv) The solution in the plate was discarded and washed with deionized water. […]

The term Dmax denotes the greatest extent of degradation seen. Low values mean a partial loss of target, high ones a fuller loss of target. Usually DC50 stands for the concentration giving 50% degradation. Read a low DC50 as degradation at low concentration. As for `CC1(C)C(=O)N(c2ccc(C#N)c(Cl)c2)c2ccc(-c3ccc(N4CC(CN5CCN(c6ccc7c(c6)C(=O)N(C6CCC(=O)NC6=O)C7=O)CC5)C4)cc3)cc21` (stereo not drawn) [Compound 1], the Dmax turned out to be 82% and half-maximal degradation (DC50) was put at 0.0903 µM.
The corresponding values for `CC1(C)C(=O)N(c2ccc(C#N)c(C(F)(F)F)c2)c2ccc(-c3ccc(N4CC(CN5CCN(c6ccc7c(c6)C(=O)N(C6CCC(=O)NC6=O)C7=O)CC5)C4)cc3)cc21` (stereo not drawn) [Compound 3] are 89% and 0.0871 µM.
As to `CC1(C)C(=O)N(c2ccc(C#N)c(Cl)c2)c2ccc(-c3ccc(N4CC(CN5CCN(c6ccc7c(c6)C(=O)N(C6CCC(=O)NC6=O)C7=O)CC5)C4)nc3F)cc21` (stereo not drawn) [Compound 14], the Dmax was 93% and the half-maximal degradation concentration (DC50) amounted to 0.0663 µM.
